Laboratory results published in patent US20060183202A1 (priority 2003, published 2006).

Assays:
[1] = molecular target: UGT73C4 (Arabidopsis thaliana, UniProt Q9ZQ97); format: cell-based
[2] = molecular target: DOGT1 (UGT73C5) (Arabidopsis thaliana, UniProt Q9ZQ94); format: cell-based
[3] = tested on: laboratory animals; settings: in vivo; cited from earlier work
[4] = tested on: DOGT1 promoter (PDOGT1-GUS); parameters: species or system Arabidopsis thaliana; settings: in vivo
[5] = tested on: A. thaliana wild-type Col-0; settings: in vivo
[6] = tested on: Saccharomyces cerevisiae strain YZGA452; format: cell-based
[7] = tested on: wheat ribosomes; format: biochemical
[8] = tested on: DOGT1 mRNA expression; parameters: species or system Arabidopsis thaliana; settings: in vivo
[9] = tested on: coleoptile elongation; settings: in vivo; cited from earlier work

Chain of UGT73C4 (Q9ZQ97 whole entry, looked up): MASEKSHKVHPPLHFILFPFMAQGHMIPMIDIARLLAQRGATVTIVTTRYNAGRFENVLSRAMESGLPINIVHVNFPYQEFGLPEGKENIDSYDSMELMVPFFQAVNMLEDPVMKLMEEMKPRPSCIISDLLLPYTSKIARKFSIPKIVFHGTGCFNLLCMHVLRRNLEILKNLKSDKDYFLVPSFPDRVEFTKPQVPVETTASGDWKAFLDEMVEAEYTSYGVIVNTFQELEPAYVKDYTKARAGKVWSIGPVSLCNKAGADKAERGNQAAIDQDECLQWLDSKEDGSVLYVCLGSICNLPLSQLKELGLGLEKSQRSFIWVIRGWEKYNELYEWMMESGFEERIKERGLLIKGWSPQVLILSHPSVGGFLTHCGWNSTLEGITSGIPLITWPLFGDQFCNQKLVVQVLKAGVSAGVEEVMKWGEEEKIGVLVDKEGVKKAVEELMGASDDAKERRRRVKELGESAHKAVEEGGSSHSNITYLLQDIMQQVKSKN
Chain of DOGT1 (UGT73C5) (Q9ZQ94 whole entry, looked up): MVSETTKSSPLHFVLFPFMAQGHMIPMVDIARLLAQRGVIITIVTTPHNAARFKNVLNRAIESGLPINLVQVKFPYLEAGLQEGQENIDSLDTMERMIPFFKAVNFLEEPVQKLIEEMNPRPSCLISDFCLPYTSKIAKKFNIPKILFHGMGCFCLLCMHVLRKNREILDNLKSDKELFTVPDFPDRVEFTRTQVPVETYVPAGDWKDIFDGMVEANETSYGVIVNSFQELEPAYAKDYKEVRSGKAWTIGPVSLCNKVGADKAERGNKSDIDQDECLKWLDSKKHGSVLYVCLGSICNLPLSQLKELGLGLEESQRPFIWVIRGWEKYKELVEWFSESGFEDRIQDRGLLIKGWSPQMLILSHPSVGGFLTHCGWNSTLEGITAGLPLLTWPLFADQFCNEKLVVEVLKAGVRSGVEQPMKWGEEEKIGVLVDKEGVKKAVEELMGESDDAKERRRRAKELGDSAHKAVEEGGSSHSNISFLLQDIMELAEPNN

In the case of `CC(=O)O[C@@H]1C[C@]2(C)[C@@]3(CO)[C@H](O)C(=O)C(C)=C[C@H]3O[C@H]1[C@@]21CO1` [3-ADON, 3-acetyl-deoxynivalenol], the “resistance to the toxin conferred by UGT73C4 expression (detoxification)” value [1] is given as “failed to confer resistance”, the “resistance to the toxin conferred by DOGT1 expression (detoxification)” value [2] is given as “inability to confer resistance” and the “fold less toxic than DON to laboratory animals” value [3] is given as “about 2 fold”.

In the case of `CC(=O)OC[C@]12[C@H](O)C(=O)C(C)=C[C@H]1O[C@@H]1[C@H](O)C[C@@]2(C)[C@]12CO2` [15-ADON, 15-acetyl-deoxynivalenol], the “resistance to the toxin conferred by UGT73C4 expression (detoxification)” value [1] is reported as “had the ability to detoxify” and the “resistance to the toxin conferred by DOGT1 expression (detoxification)” value [2] is reported as “protection”.

With `CC1=C[C@H]2O[C@@H]3[C@H](O)C[C@](C)([C@@]2(CO)[C@H](O)C1=O)[C@]31CO1` [DON, deoxynivalenol] the “induction of PDOGT1-GUS reporter expression” value [4] was “induce”, the “main phytotoxic effect on wild-type plants” value [5] was “slow germination” and the “resistance to the toxin conferred by UGT73C4 expression (detoxification)” value [1] was “had the ability to detoxify”. The “concentration sufficient to completely inhibit growth of yeast” value [6] was 180 ppm, the “luminescence remaining (luciferase activity of control)” value [7] was 3.1% and the “reporter enzyme (luciferase) activity compared to the control (100%)” value [7] was 36.8%. For the same molecule, the “resistance to the toxin conferred by DOGT1 expression (detoxification)” value [2] was “protects against” and the “induction of DOGT1 transcript (RT-PCR)” value [8] was “DON inducible expression”.

For `CC1=CC2OC3C(O[C@@H]4O[C@H](CO)[C@@H](O)[C@H](O)[C@H]4O)CC(C)(C34CO4)C2(CO)C(O)C1=O` (stereo partly drawn) [DON-3-glucoside, 3-β-D-Glucopyranosyl-4-deoxynivalenol], the “inhibition of luciferase activity” value ([7]; 20 µM) was 8%.

For `CC(=O)OC[C@]12C[C@H](OC(=O)CC(C)C)C(C)=C[C@H]1O[C@@H]1[C@H](O)[C@@H](O)[C@@]2(C)[C@]12CO2` [HT-2-toxin, HT-2 toxin], the “resistance to the toxin conferred by UGT73C4 expression (detoxification)” value [1] was “failed to confer resistance”.

For `CC/C=C\C[C@H]1C(=O)CC[C@@H]1CC(=O)O` [JA, jasmonic acid], the “induction of PDOGT1-GUS reporter expression” value [4] was “No induction” and the “induction of DOGT1 transcript (RT-PCR)” value [8] was “weak induction”.

For `CC1=C[C@H]2O[C@@H]3[C@H](O)[C@@H](O)[C@](C)([C@@]2(CO)[C@H](O)C1=O)[C@]31CO1` [NIV, nivalenol], the “resistance to the toxin conferred by UGT73C4 expression (detoxification)” value [1] is given as “failed to confer resistance”, the “resistance to the toxin conferred by DOGT1 expression (detoxification)” value [2] is given as “lack of activity” and the “toxicity compared with DON in animal systems” value [3] is given as “higher toxicity”.

For `O=C(O)c1ccccc1O` [SA, salicylic acid], the “induction of PDOGT1-GUS reporter expression” value [4] was “No induction” and the “induction of DOGT1 transcript (RT-PCR)” value [8] was “rather weakly”.

With `C/C=C\C(=O)O[C@@H]1C[C@H]2O[C@@H]3C=C(C)C(=O)C[C@]3(C)[C@]1(C)[C@]21CO1` [TTC, trichothecin] the “resistance to the toxin conferred by UGT73C4 expression (detoxification)” value [1] was “failed to confer resistance”.

In the case of Acetyl-DON [ADON], the “overall toxicity compared with the non-acetylated form (DON)” value [9] is given as “equivalent”.

With diacetoxyscirpenol [DAS] the “resistance to the toxin conferred by UGT73C4 expression (detoxification)” value [1] was “failed to confer resistance”.

For veruccarin A [VA], the “resistance to the toxin conferred by UGT73C4 expression (detoxification)” value [1] was “failed to confer resistance”.
